Laboratory results reported in US20250120420A1, “FEED ADDITIVE FOR IMPROVING ANIMAL PERFORMANCE, DIGESTION AND INTESTINAL HEALTH AND RELATED METHODS” (priority 2023, published 2025).
Marks after values point to notes of the source that are not given here.

Columns and labels:
[1] = tested on: laying hens; assay: Laying hen trial, two-by-two factorial xylanase / COS, 60 days; format: in vivo, HiSex laying hens
Procedure: The researchers combined xylanase and COS in a two-by-two factorial design study in order to investigate the impact of combining xylanase and COS on animal intestinal health, and specifically the microbiome. Materials and Methods: The effects of dietary supplementation of a combination of xylanase/COS (prototype or “[…]”) were evaluated in a laying hen trial over a duration of 60 days. A total of 40 HiSex laying hens were used in this experiment, with four diets and 10 replicates per diet. Dosages were determined based on extrapolation of the in vitro cell culture data. Laying hens were allocated into four different groups: (T1) Control; […] (T3) xylanase alone, using […] Industries, Inc.); (T4) and a combination of xylanase and COS. The diets were based on wheat ( 55%), soybean and sunflower meal.

[2] = tested on: broilers; assay: Broiler trial, xylanase/COS dose response, 35 days, zootechnical performance; format: in vivo
Procedure: The researchers performed a study in growing poultry, in which xylanase and COS were combined in a dose response study in order to study the impact of combining xylanase and COS on poultry growth.
Materials and Methods: The effects of dietary supplementation of a combination of xylanase/COS were evaluated in a broiler trial over a duration of 35 days. A total of 1200 Ross broilers were used in this experiment, with five diets and 12 replicates per diet.

[3] = Grower phase, 15-35 days of age
[4] = Starter phase, 0-14 days of age

## beta 1-4, endo-xylanase enzyme [Xygest HT]
[1]; End of Phase 1
  Albumin Height: 7.1 a mm
  Egg Shell Thickness: 0.397 a mm
  Haugh Unit (HU): 84.3 a
  Shell Breaking Strength: 4.6 a kg · force
  Yolk Color Score (DSM method): 5.3 a
  Yolk Diameter: 43.2 mm
  Yolk Height: 18.7 mm
  Yolk Index: 0.44
[1]; End of Phase 2
  Albumin Height: 7.9 a mm
  Egg Shell Thickness: 0.428 a mm
  Haugh Unit (HU): 88.7 a
  Shell Breaking Strength: 4.7 ab kg · force
  Yolk Color Score (DSM method): 6.7 a
  Yolk Diameter: 44.2 mm
  Yolk Height: 18.3 ab mm
  Yolk Index: 0.42 a
[1]; laying hens, 60 days
  Egg mass, % Improvement compared to the control treatment: 0.91%
  Egg weight, % Improvement compared to the control treatment: 0.58%
  FCR, % Improvement compared to the control treatment: −0.07%
  laying percentage compared to the control group (in words): significant increase
  nutrient digestibility (in words, FIG. 6-11): Even a better effect
[2]; Global trial, 0-35 days of age
  ADFI: 87.2 g/day
  FCR: 1.51^ab
  M-ADFI (mortality adjusted mean daily feed intake): 86.8 g/day
  M-ADG (mortality adjusted mean daily gain): 57.5^a g/d
  M-FCR (Mortality adjusted feed:gain): 1.51^ab
[2]; [3]
  ADFI: 123.7 g/day
  ADG: 80.0^a g/d
  FCR: 1.55^ab
  M-ADFI (mortality adjusted mean daily feed intake): 123.3 g/day
  M-ADG (mortality adjusted mean daily gain): 79.9^a g/d
  M-FCR (Mortality adjusted feed:gain): 1.54^ab
[2]; [4]
  ADFI: 32.9 g/day
  ADG: 24.5 g/day
  FCR: 1.35
  M-ADFI (mortality adjusted mean daily feed intake): 32.8 g/day
  M-ADG (mortality adjusted mean daily gain): 24.4 g/day
  M-FCR (Mortality adjusted feed:gain): 1.34^ab
[2]; broilers, 14 days of age
  Body weight: 386 g
